The values below are quoted from earlier work in patent US20200000760A1, “METHOD FOR TREATING OVERACTIVE BLADDERS AND A DEVICE FOR STORAGE AND ADMINISTRATION OF TOPICAL OXYBUTYNIN COMPOSITIONS” (Allergan Sales, LLC, priority 2009, published 2020).

For data set [1] the following is noted: transdermal administration compared to oral administration.
For data set [2] the following is noted: transdermal administration compared to oral administration. This is another data set of the same source.

Consider `CCN(CC)CC#CCOC(=O)C(O)(c1ccccc1)C1CCCCC1` (centres unmarked) [oxybutynin], for which the “oxybutynin:desethyloxybutynin ratio in the plasma” value in data set [1] is “reduced”. The adverse events result in data set [2] is reported as “less adverse events”.
